Literature values as cited in patent US8071125B2, “Transdermal patch containing isosorbide dinitrate and bisoprolol” (Beijing Kangbeide Pharmaceutical Technology Development …, priority 2005, dated 2011).

Tested on: Patients with Primary Hypertension
Conditions: oral administration

CC(C)NCC(O)COc1ccc(COCCOC(C)C)cc1 (stereo not shown) [Bisoprolol]
average reduction of the heart rate after the treatment: 15.1%
